Key:
[1] = biological target: T1, Mitogen-activated protein kinase kinase kinase 2 (Homo sapiens) (UniProt Q9Y2U5); test: Inhibition of MAP3K2 Lys2 labeling site in human Huh-7 cell lysate at 1 uM by KiNativ Profiling analysis relative to control; type: subcellular
T1 sequence (whole entry): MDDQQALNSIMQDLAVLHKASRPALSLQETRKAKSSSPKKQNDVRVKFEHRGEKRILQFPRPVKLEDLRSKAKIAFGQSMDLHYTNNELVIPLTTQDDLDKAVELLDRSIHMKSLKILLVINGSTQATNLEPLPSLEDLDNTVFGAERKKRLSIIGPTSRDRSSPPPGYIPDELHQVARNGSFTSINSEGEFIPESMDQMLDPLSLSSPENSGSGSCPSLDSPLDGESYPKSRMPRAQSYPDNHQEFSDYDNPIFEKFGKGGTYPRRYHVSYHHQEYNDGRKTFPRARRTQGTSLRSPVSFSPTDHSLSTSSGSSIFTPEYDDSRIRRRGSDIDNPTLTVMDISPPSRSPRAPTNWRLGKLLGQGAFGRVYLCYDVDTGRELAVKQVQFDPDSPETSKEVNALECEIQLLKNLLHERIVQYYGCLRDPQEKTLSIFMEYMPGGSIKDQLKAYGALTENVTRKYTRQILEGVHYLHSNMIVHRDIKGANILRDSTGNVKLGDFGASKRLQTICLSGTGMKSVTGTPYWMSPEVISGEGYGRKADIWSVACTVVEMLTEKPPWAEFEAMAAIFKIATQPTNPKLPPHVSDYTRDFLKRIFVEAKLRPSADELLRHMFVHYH

[2] = biological target: T2, Serine/threonine-protein kinase TBK1 (Homo sapiens) (UniProt Q9UHD2); test: Inhibition of TBK1 Lys1 labeling site in human Huh-7 cell lysate at 1 uM by KiNativ Profiling analysis relative to control; type: subcellular
T2 sequence (whole entry): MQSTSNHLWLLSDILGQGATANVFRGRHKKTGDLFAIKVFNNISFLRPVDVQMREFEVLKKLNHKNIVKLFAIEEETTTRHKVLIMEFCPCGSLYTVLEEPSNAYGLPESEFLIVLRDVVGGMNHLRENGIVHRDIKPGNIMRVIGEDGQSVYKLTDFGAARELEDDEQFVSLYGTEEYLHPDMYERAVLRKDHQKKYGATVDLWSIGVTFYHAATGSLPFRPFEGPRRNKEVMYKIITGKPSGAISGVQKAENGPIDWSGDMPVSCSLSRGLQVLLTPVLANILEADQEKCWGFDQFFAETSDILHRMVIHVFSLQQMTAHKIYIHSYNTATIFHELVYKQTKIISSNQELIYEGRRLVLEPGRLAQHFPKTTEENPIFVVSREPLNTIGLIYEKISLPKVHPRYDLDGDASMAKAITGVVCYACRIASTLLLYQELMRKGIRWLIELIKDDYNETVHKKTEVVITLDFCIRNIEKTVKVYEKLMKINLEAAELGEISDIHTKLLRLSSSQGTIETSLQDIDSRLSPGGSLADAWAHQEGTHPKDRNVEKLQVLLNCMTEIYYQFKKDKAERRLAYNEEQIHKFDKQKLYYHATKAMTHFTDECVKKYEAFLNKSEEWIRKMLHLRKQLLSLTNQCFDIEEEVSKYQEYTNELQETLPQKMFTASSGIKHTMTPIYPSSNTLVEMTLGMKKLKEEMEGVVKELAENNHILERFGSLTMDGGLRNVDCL

[3] = biological target: Serine/threonine-protein kinase 32C (Homo sapiens) (UniProt Q86UX6); test: Inhibition of YANK3 Lys2 labeling site in human Huh-7 cell lysate at 1 uM by KiNativ Profiling analysis relative to control; type: subcellular
[4] = biological target: RAF proto-oncogene serine/threonine-protein kinase (Homo sapiens, UniProt P04049); test: Inhibition of RAF1 Lys2 labeling site in human Huh-7 cells at 1 uM by KiNativ Profiling analysis relative to control; type: cell-based
[5] = biological target: Peripheral plasma membrane protein CASK (Homo sapiens) (UniProt O14936); test: Inhibition of CASK Lys1 labeling site in human Huh-7 cell lysate at 1 uM by KiNativ Profiling analysis relative to control
[6] = biological target: Calcium/calmodulin-dependent protein kinase kinase 2 (Homo sapiens) (UniProt Q96RR4); test: Inhibition of CAMKK2 (unknown origin) at 10 uM by Ambit Kinomescan binding assay relative to control
Calcium/calmodulin-dependent protein kinase kinase 2 (Homo sapiens), sequence (Q96RR4 2-588 limits assumed): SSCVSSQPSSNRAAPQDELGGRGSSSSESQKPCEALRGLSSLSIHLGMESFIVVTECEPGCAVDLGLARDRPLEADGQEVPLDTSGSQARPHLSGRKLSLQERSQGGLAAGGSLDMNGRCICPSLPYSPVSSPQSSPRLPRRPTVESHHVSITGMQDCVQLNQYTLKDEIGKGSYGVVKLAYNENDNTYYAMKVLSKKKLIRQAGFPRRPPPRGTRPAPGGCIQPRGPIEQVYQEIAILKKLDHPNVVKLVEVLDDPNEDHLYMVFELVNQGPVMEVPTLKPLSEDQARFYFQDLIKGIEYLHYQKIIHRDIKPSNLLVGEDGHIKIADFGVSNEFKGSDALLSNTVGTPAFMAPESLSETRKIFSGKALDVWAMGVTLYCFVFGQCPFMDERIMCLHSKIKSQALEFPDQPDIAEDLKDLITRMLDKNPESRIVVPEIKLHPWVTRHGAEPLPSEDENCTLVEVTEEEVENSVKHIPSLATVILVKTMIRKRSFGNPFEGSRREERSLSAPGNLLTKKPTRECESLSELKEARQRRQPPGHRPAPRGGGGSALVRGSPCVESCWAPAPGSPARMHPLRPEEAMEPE

[7] = biological target: Epidermal growth factor receptor (Homo sapiens) (UniProt P00533); test: Inhibition of EGFR ACT labeling site harbouring ITDFGLAKLLGAEEK in human A-375 cells at 5 uM by KiNativ Profiling analysis relative to control; type: cell-based
[8] = biological target: Tyrosine-protein kinase Fer (Homo sapiens, UniProt P16591); test: Inhibition of FER Lys1 labeling site harbouring DKTSVAVKTCKEDLPQELK in human A-375 cells at 0.05 uM by KiNativ Profiling analysis relative to control; type: cell-based
[9] = Inhibition of […] K2 labeling site in human Huh-7 cells at 10 uM by KiNativ Profiling analysis relative to control; conditions: condition cancer
[10] = biological target: Hepatocyte growth factor receptor (Homo sapiens) (UniProt P08581); test: Inhibition of MET ACT labeling site in human Huh-7 cells at 1 uM by KiNativ Profiling analysis relative to control; type: cell-based
Hepatocyte growth factor receptor (Homo sapiens), sequence (P08581 whole entry): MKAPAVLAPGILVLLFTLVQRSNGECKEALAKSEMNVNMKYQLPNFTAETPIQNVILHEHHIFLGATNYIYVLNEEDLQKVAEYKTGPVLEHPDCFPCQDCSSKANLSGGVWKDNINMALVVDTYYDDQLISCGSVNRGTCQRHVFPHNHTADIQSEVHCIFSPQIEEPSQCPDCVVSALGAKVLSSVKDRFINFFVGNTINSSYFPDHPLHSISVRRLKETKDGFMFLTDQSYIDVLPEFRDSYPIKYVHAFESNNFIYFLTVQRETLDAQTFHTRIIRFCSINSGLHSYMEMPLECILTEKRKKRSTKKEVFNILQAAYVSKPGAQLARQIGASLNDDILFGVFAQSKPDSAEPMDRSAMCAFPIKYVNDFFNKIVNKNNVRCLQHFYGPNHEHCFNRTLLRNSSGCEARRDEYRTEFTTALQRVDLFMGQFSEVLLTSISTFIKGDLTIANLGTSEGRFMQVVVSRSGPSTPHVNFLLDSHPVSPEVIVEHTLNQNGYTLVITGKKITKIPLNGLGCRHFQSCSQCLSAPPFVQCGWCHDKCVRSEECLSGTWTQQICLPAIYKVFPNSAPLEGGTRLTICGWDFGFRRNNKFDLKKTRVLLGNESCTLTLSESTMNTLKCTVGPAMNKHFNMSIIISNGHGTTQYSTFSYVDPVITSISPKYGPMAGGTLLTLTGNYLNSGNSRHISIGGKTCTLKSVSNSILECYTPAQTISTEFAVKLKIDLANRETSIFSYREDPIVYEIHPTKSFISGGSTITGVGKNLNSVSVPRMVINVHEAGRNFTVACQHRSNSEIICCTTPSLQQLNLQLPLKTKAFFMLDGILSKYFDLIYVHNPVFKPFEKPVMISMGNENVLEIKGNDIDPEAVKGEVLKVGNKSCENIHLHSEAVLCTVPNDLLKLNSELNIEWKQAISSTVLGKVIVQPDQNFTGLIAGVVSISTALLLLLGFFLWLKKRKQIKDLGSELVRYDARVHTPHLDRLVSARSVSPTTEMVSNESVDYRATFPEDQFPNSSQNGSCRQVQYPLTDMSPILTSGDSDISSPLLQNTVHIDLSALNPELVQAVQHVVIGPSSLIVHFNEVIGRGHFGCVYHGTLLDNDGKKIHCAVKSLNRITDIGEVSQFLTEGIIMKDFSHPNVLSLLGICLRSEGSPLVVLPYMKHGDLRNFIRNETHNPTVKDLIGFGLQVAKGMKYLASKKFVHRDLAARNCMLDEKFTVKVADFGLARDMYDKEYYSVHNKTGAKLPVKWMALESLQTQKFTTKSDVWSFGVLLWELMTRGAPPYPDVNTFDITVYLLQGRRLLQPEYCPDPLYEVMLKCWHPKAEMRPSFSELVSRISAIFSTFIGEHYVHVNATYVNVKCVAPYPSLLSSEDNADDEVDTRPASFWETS

[11] = biological target: Dual specificity protein kinase TTK (Homo sapiens) (UniProt P33981); test: Inhibition of TTK (unknown origin) at 10 uM by Ambit Kinomescan binding assay relative to control; values are per cent of control
Dual specificity protein kinase TTK (Homo sapiens), sequence (P33981 whole entry): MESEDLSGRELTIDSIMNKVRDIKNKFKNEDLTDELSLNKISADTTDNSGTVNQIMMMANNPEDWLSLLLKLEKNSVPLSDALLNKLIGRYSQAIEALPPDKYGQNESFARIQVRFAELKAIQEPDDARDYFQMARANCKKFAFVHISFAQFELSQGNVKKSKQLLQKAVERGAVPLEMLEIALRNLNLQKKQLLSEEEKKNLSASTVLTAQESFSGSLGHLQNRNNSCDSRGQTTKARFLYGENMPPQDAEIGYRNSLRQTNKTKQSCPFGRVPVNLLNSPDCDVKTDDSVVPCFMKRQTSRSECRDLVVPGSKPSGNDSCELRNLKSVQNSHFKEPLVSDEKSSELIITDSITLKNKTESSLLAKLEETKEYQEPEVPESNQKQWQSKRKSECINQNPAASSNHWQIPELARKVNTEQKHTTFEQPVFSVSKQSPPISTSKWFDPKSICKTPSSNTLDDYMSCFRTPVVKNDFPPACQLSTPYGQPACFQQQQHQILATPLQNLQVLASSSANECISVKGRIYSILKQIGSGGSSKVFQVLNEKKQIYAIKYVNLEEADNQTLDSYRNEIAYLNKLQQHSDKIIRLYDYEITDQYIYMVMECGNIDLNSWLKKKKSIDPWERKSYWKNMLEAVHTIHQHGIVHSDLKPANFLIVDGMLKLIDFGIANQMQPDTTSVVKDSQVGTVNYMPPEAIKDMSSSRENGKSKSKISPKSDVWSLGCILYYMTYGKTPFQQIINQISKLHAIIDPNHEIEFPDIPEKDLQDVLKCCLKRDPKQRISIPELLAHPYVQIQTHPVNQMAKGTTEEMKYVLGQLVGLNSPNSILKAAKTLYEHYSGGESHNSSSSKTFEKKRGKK

[12] = biological target: Serine/threonine-protein kinase B-raf (Homo sapiens, UniProt P15056); test: Inhibition of BRAF (unknown origin) at 1 uM by Ambit Kinomescan binding assay relative to control
Serine/threonine-protein kinase B-raf, sequence (P15056 whole entry, the tested form may be a part): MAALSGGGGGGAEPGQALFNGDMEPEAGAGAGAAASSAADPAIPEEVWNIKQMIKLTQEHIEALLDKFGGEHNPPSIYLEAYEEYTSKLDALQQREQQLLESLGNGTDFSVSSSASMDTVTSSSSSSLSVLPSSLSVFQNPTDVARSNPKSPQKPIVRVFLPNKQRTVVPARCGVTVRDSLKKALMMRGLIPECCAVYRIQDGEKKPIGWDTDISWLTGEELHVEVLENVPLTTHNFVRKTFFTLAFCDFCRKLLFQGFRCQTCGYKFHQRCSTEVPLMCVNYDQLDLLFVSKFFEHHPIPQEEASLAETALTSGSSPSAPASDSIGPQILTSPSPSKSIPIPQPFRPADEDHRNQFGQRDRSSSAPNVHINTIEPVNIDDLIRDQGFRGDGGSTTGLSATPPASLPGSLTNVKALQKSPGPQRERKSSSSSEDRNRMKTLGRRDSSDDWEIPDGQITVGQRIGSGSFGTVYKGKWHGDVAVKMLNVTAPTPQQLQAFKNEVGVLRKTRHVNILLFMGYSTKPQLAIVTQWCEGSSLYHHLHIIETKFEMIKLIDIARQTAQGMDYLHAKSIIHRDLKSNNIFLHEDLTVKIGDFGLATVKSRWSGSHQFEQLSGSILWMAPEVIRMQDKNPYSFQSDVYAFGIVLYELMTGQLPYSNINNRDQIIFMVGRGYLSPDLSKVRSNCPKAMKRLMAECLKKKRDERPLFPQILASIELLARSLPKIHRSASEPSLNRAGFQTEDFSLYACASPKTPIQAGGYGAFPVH

[13] = biological target: Ribosomal protein S6 kinase alpha-4 (Homo sapiens) (UniProt O75676); test: Inhibition of C-terminal RPS6KA4 kinase domain 2 (unknown origin) at 1 uM by Ambit Kinomescan binding assay relative to control
[14] = biological target: Uncharacterized serine/threonine-protein kinase SBK3 (Homo sapiens) (UniProt P0C264); test: Inhibition of SgK110 (unknown origin) at 1 uM by Ambit Kinomescan binding assay relative to control
[15] = biological target: Cyclin-dependent kinase 7 (Homo sapiens) (UniProt P50613); test: Inhibition of CDK7 Lys2 labeling site in human A-375 cells at 0.5 uM by KiNativ Profiling analysis relative to control; type: cell-based
[16] = biological target: Glycogen synthase kinase-3 beta (Homo sapiens) (UniProt P49841); test: Inhibition of GSK3B Lys2 labeling site in human A-375 cells at 0.5 uM by KiNativ Profiling analysis relative to control; type: cell-based
Glycogen synthase kinase-3 beta (Homo sapiens), sequence (P49841 whole entry, looked up): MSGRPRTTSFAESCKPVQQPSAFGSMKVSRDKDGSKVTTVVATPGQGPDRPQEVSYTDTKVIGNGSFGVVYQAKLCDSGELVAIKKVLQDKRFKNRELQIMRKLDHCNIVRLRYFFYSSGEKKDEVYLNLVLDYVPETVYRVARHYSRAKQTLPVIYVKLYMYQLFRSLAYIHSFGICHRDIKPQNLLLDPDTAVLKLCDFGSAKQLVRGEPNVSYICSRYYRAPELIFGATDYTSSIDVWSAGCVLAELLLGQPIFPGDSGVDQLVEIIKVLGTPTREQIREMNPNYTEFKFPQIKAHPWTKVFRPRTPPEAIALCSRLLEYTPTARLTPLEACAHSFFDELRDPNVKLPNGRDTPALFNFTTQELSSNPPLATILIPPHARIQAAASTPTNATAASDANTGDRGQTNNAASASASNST

[17] = biological target: Serine/threonine-protein kinase PAK 4 (Homo sapiens) (UniProt O96013); test: Inhibition of PAK4 (unknown origin) at 1 uM by Ambit Kinomescan binding assay relative to control; values are per cent of control
[18] = biological target: Ephrin type-A receptor 6 (Homo sapiens) (UniProt Q9UF33); test: Inhibition of EPHA6 (unknown origin) at 1 uM by Ambit Kinomescan binding assay relative to control; values are per cent of control
Ephrin type-A receptor 6 (Homo sapiens), sequence (Q9UF33 whole entry): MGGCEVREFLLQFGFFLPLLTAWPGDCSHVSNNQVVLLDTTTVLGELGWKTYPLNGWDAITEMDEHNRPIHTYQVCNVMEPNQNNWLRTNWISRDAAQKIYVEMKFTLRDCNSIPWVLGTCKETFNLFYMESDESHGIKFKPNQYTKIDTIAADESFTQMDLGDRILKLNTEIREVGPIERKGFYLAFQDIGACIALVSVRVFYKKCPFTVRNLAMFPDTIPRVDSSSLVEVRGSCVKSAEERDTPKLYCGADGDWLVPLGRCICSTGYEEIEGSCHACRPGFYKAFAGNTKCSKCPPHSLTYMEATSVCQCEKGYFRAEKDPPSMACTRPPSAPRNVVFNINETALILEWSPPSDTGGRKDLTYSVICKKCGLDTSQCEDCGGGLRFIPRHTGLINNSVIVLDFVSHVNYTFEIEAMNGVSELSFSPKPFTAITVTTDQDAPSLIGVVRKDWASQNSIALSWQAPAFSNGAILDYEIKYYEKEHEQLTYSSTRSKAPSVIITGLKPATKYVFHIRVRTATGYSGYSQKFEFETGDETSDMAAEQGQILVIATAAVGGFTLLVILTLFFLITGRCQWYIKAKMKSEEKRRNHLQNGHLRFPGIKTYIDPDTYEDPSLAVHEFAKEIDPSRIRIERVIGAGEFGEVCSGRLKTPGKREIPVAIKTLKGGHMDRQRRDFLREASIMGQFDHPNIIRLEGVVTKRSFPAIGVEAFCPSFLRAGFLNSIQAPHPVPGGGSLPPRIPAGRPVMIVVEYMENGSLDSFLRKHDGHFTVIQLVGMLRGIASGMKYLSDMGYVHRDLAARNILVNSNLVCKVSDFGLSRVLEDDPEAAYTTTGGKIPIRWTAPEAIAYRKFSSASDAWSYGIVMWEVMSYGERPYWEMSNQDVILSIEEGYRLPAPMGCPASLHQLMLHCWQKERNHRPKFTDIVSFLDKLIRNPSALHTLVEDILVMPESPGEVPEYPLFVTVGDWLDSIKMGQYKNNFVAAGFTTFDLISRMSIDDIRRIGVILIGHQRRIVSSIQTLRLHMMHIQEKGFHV

For `CNc1cc(Oc2cc(C(=O)Nc3cc(N4CCN(C)CC4)cc(C(F)(F)F)c3)ccc2C)ncn1`, the inhibition [1] was 1.9%, the inhibition [2] was -1.5% and the inhibition [3] was -3.3%. For the same compound, the inhibition [4] was 34.1% and the inhibition [5] was -8.9%.
`CCN1CCN(Cc2ccc(NC(=O)c3ccc(C)c(Oc4ccnc5[nH]ccc45)c3)cc2C(F)(F)F)CC1` showed an inhibition [6] of 28%, an inhibition [7] of 5.4% and an inhibition [8] of 62.8%. For the same compound, the inhibition at 10 µM [9] was -6.7%, the inhibition [10] was 15.5% and the residual activity [11] was 24%.
Work on `CCN1CCN(Cc2ccc(NC(=O)c3ccc(C)c(/C=C/c4cnc5[nH]ccc5c4OC)c3)cc2C(F)(F)F)CC1` yielded an inhibition [12] of 17%, an inhibition [13] of 73% and an inhibition [14] of 45%. For the same compound, the inhibition [15] was 36.2%, the inhibition [16] was 34.9% and the residual activity [17] was 100%. It also gave a residual activity [18] of 29%.
